Assay results from patent US20030186967A1, “Acylresorcinol derivatives are selective vitronectin receptor inhibitors” (American Home Products Corporation, priority 1998, published 2003).
Structures can show the parent of a compound that is named as a salt. Where two headings read alike, the source gives them in different places. Ends that are not written are not given here.

Key:
αVβ3 integrin = molecular target: T1, αVβ3 integrin (Homo sapiens, UniProt P05106+P06756); test: Osteopontin-αVβ3 Cell Attachment Assay; assay type: cell-based
T1 construct: αVβ3-expressing cell lines are maintained by standard tissue culture techniques; endogenous in cells; host or cells: αVβ3-expressing cell lines
Method: Osteopontin-αVβ3 Cell Attachment Assay The purpose of this assay is to measure the effect of various compounds on the RGD-dependent attachment of cells to osteopontin mediated by the αVβ3 integrin. […] Following the blocking period, wells are aspirated and washed once with D-PBS. Cell Suspension αVβ3-expressing cell lines are maintained by standard tissue culture techniques. […] The cells are pelleted by low-speed centrifugation and washed three times with 0.5 mg/mL trypsin inhibitor in D-PBS (Sigma). The final cell pellet is resuspended in cell suspension media at a concentration of 10^6 cells/mL. Attachment Assay Incubation: […] of diluted test compound is added to osteopontin-coated wells (in triplicate) followed by […] of cell suspension; background cell attachment is determined in uncoated wells. The plate is incubated at 25° C. in a humidified air atmosphere for 1.5 hours. Following the incubation period, the wells are gently aspirated and washed once with D-PBS. Cell Number Detection: The number of cells attached is determined by an MTT dye conversion assay (Promega) according to the manufacturer's instructions. Briefly, MTT dye is diluted in cell suspension media (15:85) and […] is added to each well. […] The assay plates are covered and incubated at 37° C. in a humidified air atmosphere overnight. […] Reference Compounds Various […]

osteoclasts = test: Osteoclast Pitting Assay; assay type: cell-based, rat
Method: The assay is conducted as described in Murrills and Dempster (1990). Briefly, 4×4×0.2 mm slices of devitalized bovine cortical bone are numbered, placed in the wells of 96-well culture plates and wetted with 100 ul of Medium 199 containing Hanks salts, 10 mM HEPES, pH 7.0 (Medium 199/Hanks). Bone cell suspensions containing osteoclasts are prepared by mincing the long bones of neonatal rats (Sprague-Dawley, 4-6 days old) in Medium 199/Hanks. 100 uL of the suspension is then plated onto each slice and incubated 30 minutes to allow osteoclasts to adhere. The slices are rinsed to remove non-adherent cells and incubated 24 h in Medium 199 containing Earle's salts, 10 mM HEPES and 0.7 g/L NaHCO3, which equilibrates at pH 6.9 in a 5% CO2 atmosphere. At this pH the adherent osteoclasts excavate an adequate number of resorption pits for assay purposes. Slices are fixed in 2.5% glutaraldehyde and osteoclasts counted following tartrate-resistant acid phosphatase staining. […] All cells are stripped from the slice by sonication on 0.25M NH4OH and the resorption pits formed by the osteoclasts during the experiment stained with toluidine blue. Resorption pits are quantified by manually counting.
The experiments are conducted according to a block design with osteoclasts from each animal exposed to each treatment. Three replicate slices are used per treatment per animal, such that a total of 96 slices are examined for an experiment involving four animals and eight treatments (including control). Several parameters are recorded on a “per slice” basis: number of pits, number of osteoclasts, number of pits per osteoclast, number of fibroblast-like bone cells. SAS or JMP statistical software is used for statistical analysis. […] IC50s are calculated for active compounds using dose-response curves.
Reference Compound: Rat calcitonin.
Osteoclasts are responsible for the bone loss that occurs in the onset of osteoporosis and anti-resorptive drugs directed against the osteoclast are a requirement for patients losing bone.

[1] = test system: thyro-parathyroidectomized (TPTX) rats; test: PTH-induced hypercalcemia of thyroparathyroidectomized male rats; assay type: in vivo, rat; settings: Rattus norvegicus
Method: Effects of test compounds on PTH-induced hypercalcemia of thyroparathyroidectomized male rats
Male thyro-parathyroidectomized (TPTX) rats (Charles River) were randomly assigned to groups of 7 rats/group. Following a baseline serum calcium determination an Alzet 1003D minipump (Alza Corporation, Palo Alto, Calif.) loaded with 0.3 mg/ml PTH (Bachem, Philadelphia, Pa.) was implanted subcutaneously in each rat. For evaluation of prophylactic effects of a test drug, another minipump with appropriate concentration of the test drug solution was implanted subcutaneously at a site away from PTH minipump. Alternatively, test drugs were administered by oral gavage as a solution or uniform suspension in an appropriate medium depending on the physical properties of the test compound. A group of 7 unimplanted TPTX rats was set aside as a normal control group. Twenty hours after minipump implantation blood was collected from each rat to confirm the presence of hypercalcemia (judged by elevation of serum calcium levels, 2 SD>normal non-implanted level). At various intervals between 0.5 and 24 hours after dosing (usually one to three time points), blood was collected from each rat and the serum evaluated for total calcium. Serum calcium levels were measured using the Nova 7+7 calcium auto analyzer spectrophotometrically using the Sigma test kit (#587A). Test results were determined by the difference in serum calcium between vehicle and treatment group following PTH administration, using a one-way analysis of variance with Dunnett's test or other multiple comparison methods.

[2] = molecular target: T2, Vitronectin receptor αVβ3 (Homo sapiens, UniProt P05106+P06756); test: Vitronectin Receptor αVβ3 Binding Assay; settings: for IC50: read-out: VnR (IC50μM)
T2 construct: expressed in transfected cells; host or cells: 512P5 cells (plasma membrane preparation)

[3] = Osteoclast Pitting Assay, neonatal rat osteoclasts on bovine cortical bone slices, read-out: IC50 (μM) Bone Pitting

T2 sequence (P06756 31-889 limits assumed): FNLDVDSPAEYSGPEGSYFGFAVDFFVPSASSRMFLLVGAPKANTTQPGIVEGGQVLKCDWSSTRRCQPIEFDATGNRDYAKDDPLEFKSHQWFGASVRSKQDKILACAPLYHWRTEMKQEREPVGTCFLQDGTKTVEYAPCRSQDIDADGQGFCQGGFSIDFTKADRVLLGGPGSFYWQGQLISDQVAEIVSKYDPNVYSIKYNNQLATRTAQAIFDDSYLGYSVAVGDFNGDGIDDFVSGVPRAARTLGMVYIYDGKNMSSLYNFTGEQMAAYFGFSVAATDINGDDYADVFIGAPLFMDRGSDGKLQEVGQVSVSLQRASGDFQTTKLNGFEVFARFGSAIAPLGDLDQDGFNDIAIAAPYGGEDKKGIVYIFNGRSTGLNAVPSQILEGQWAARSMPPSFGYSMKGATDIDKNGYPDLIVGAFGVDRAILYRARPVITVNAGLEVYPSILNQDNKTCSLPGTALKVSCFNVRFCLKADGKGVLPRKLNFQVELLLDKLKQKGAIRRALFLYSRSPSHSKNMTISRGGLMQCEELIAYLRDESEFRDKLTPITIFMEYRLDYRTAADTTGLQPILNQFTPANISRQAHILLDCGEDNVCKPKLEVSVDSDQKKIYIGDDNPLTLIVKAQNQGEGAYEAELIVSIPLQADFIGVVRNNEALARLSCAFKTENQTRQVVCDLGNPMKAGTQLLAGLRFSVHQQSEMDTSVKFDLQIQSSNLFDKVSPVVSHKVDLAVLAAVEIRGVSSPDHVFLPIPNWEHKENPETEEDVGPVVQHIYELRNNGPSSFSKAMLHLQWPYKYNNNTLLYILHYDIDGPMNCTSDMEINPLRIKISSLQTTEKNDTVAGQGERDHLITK
T2 sequence (P06756 891-1048 partner limits assumed): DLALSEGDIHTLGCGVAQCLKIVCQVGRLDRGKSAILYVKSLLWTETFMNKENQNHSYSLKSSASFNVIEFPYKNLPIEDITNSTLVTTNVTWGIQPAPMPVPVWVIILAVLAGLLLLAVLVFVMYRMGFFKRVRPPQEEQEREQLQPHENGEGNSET
T2 sequence (P05106 27-788): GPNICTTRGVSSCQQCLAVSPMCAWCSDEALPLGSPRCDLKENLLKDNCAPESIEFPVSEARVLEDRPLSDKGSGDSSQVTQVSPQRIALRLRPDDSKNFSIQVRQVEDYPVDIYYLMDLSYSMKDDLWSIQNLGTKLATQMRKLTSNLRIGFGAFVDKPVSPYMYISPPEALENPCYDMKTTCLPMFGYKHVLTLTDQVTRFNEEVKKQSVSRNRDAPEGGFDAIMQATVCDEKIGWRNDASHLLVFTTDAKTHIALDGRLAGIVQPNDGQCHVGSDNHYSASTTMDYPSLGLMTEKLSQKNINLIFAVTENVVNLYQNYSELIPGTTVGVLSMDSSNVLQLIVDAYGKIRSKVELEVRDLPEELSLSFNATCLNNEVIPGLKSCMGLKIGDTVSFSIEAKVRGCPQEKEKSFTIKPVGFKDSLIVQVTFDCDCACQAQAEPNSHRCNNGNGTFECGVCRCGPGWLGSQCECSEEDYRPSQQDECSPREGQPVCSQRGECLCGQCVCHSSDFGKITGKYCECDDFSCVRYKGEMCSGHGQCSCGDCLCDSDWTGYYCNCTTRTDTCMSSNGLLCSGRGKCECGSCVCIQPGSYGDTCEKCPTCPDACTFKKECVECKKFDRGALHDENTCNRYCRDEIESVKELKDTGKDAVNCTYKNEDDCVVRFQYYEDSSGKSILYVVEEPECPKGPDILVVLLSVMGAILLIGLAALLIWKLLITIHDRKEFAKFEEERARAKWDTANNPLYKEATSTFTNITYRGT
T1 sequence (P06756 31-889 limits assumed): as the sequence (P06756 31-889 limits assumed) above
T1 sequence (P06756 891-1048 partner limits assumed): as the sequence (P06756 891-1048 partner limits assumed) above
T1 sequence (P05106 27-788): as the sequence (P05106 27-788) above

Compound | IC50 (αVβ3 integrin) [µM] | IC50 (osteoclasts; [3]) [µM] | inhibition in vivo at 100 mg/kg ([1]; sc) [%] | IC50 [2] [µM] | further results
O=C(NC[C@H](NS(=O)(=O)c1ccccc1)C(=O)O)c1ccc(OCCNc2ncccn2)cc1O [Example 274] | 18 | 0.9 | 54 | – | –
O=C(NC[C@H](NS(=O)(=O)c1ccccc1)C(=O)O)c1ccc(OCCNC2=NCCCN2)cc1O [Example 275, 2(S)-Benzenesulfonylamino-3-[2-hydroxy-4-[2-(3,4,5,6-tetrahydro-pyrimidin-2-ylamino)ethoxy]benzoylamino]propionic acid hydrochloride] | 0.002 | 0.43 | 112 | – | inhibition in vivo at 100 mg/kg ([1]; po): 39%; inhibition in vivo at 30 mg/kg ([1]; sc, 30 mg/kg): 64%; inhibition in vivo at 75 mg/kg ([1]; sc, 75 mg/kg): 105%
CCOC(=O)[C@H](CNC(=O)c1ccc(OCCNC2=NCCCN2)cc1O)NS(=O)(=O)c1ccccc1 [Example 276, hydrochloride] | 0.12 | 0.15 | 170 | – | –
CCOC(=O)[C@H](CNC(=O)c1ccc(OCCNC2=NCCCN2)cc1O)NC(=O)OCc1ccccc1 [Example 277, 2(S)-Benzyloxycarbonylamino-3-[2-hydroxy-4-[2-(3,4,5,6-tetra-hydropyrimidin-2-ylamino)ethoxy]benzoylamino]propionic acid ethyl ester hydrochloride] | 0.05 | 0.4 | 86 | – | inhibition in vivo at 100 mg/kg ([1]; po): 79%
O=C(N[C@@H](CNC(=O)c1ccc(OCCNC2=NCCCN2)cc1O)C(=O)O)OCc1ccccc1 [Example 278, 2(S)-Benzyloxycarbonylamino-3-[2-hydroxy-4-[2-(3,4,5,6-tetrahydro-pyrimidin-2-ylamino)ethoxy]benzoylamino]propionic acid hydrochloride] | 0.02 | 0.5 | – | – | –
CCOC(=O)CC(NC(=O)c1ccc(OCCNC(=N)N)cc1O)c1ccccc1 (stereo not shown) [Example 279, 3-[4-(2-Guanidinoethoxy)-2-hydroxy-benzoylamino]-3-phenylpropanoic acid ethyl ester hydrochloride] | – | – | 59 | 0.013 | –
N=C(N)NCCOc1ccc(C(=O)NC(CC(=O)O)c2ccccc2)c(O)c1 (stereo not shown) [Example 280, 3-[4-Guanidinoethoxy)-2-hydroxy-benzoylamino]-3-phenylpropanoic acid, hydrochloride] | 78 | – | – | 12.3 | IC50 (μM) Bone Pitting (osteoclasts; Osteoclast Pitting Assay, neonatal rat osteoclasts on bovine cortical bone slices): inactive @ 200
O=C(O)CC(NC(=O)c1ccc(OCCNC2=NCCCN2)cc1O)c1cccnc1 (stereo not shown) [Example 282, 3-[2-Hydroxy-4-[2-(3,4,5,6-tetrahydropyrimidine-2ylamino)-ethoxy]benzoylamino]-3-pyridin-3-ylpropionic acid] | 33 | – | – | – | VnR, % @ 100 ([2]; @ 100): −42% @ 100
N=C(N)NCCOc1ccc(C(=O)NC(CC(=O)O)c2cccnc2)c(O)c1 (stereo not shown) [Example 285, 3-[4-(2-Guanidino-ethoxy)-2-hydroxybenzoyl-amino]-3-pyridin-3-yl-propanoic acid] | 56 | – | – | 5 | –
O=C(O)CC(NC(=O)c1ccc(OCCNc2ncccn2)cc1O)c1cccnc1 (stereo not shown) [Example 286, 3-[2-hydroxy-4-[2-(pyrimidin-2-ylamino)-ethoxy]benzoylamino]-3-pyridin-3-yl-propanoic acid] | 86 | – | – | 2.8 | –
CCOC(=O)CC(NC(=O)c1ccc(OCCNc2ncccn2)cc1O)c1ccccc1 (stereo not shown) [Example 288, 3-[2-hydroxy-4-[2-(pyrimidin-2-ylamino)-ethoxy]benzoyl-amino]-3-phenyl-propanoic acid ethyl ester] | – | – | – | 0.003 | IC50 (osteoclasts; Rattus norvegicus, Osteoclast, read-out: bone pitting IC50): 0.44 µM
O=C(O)CC(NC(=O)c1ccc(OCCNC2=NCCCN2)cc1O)c1ccccc1 (stereo not shown) [Example 291, 3-[2-hydroxy-4-[2-(3,4,5,6-tetrahydropyrimidin-2-ylamino)ethoxy]-benzoylamino]-3-phenyl-propanoic acid] | 28 | – | 41 | 0.44 | –
CCOC(=O)CC(NC(=O)c1ccc(OCCNC2=NCCCN2)cc1O)c1ccccc1 (stereo not shown) [Example 292, 3-[2-hydroxy-4-[2-(3,4,5,6-tetrahydropyrimidin-2-ylamino)ethoxy]-benzoylamino]-3-phenyl-propanoic acid ethyl ester hydrochloride] | – | – | 111 | 0.115 | –
O=C(N[C@@H](CNC(=O)c1ccc(OCCNc2ncccn2)cc1O)C(=O)O)OCc1ccccc1 [Example 297, 2(S)-Benzyloxycarbonylamino-3-[2-hydroxy-4-[2-(pyrimidin-2-ylamino)ethoxy]-benzoylamino]propionic acid] | 50 | 25 | – | – | –
CCOC(=O)[C@H](CNC(=O)c1ccc(OCCNc2ncccn2)cc1O)NC(=O)OCc1ccccc1 [Example 299, 2(S)-Benzyloxycarbonylamino-3-[2-hydroxy-4-[2-(pyrimidin-2-ylamino)ethoxy]-benzoylamino]propionic acid ethyl ester hydro-chloride] | – | 1.9 | – | – | IC50 (μM) Cell (αVβ3 integrin): inactive @ 100; inhibition in vivo at 100 mg/kg ([1]; po): 102%; melting point: 124 to 125 °C
Calcitonin: anti-resorptive used in the clinic; rat calcitonin is the reference compound of the pitting assay (CGNLSTCMLGTYTQDLNKFHTFPQTSIGVGAP; ends and bridges not checked; cysteine pairing not given here; UniProt P01257 85-116, looked up) [reference compound] | – | – | – | – | osteoclast inhibitory activity (osteoclasts): significant osteoclast inhibitory activity
